According to the OligoGym collection:
After the bases stand the sugars from the 5' end (letter, count) and the backbone: PS all phosphorothioate, else s phosphorothioate and o phosphodiester by linkage. Methylation of C is not given here. l = locked nucleic acid (LNA); d = 2'-deoxy (DNA)

Target: SNHG14
Details: ASO
[1] = Mouse Primary Neuronal Cell, 0.005 µM

Sequence	target mRNA inhibition (Human Neuronal Cell, 7.5 µM) [%]	target mRNA inhibition (Human Neuronal Cell, 0.2 µM) [%]	target mRNA inhibition (Human Neuronal Cell, 1 µM) [%]	further results
CAAAGATCATTCTCAAC (sugars l5 d6 l1 d1 l4, PS)	22			
CAAAGATCATTCTCAACA (sugars l1 d4 l1 d7 l5, PS)	65			
CAAAGATCATTCTCAACA (sugars l3 d1 l2 d10 l2, PS)	61			
CAACATTATTAACCACCTT (sugars l1 d2 l1 d12 l3, PS)	53			
CAACATTATTAACCACCTT (sugars l2 d10 l2 d3 l2, PS)	43			
CAACATTATTAACCACCTT (sugars lldlldddddddddldlll, PS)	49			
CAACATTATTAACCACCTTA (sugars l1 d15 l4, PS)	36			
CAACATTATTAACCACCTTA (sugars l2 d4 l1 d11 l2, PS)	37			
CAACATTATTAACCACCTTA (sugars llddlddddddddddldlll, PS)	47			
CAACATTATTGACACT (sugars l2 d10 l4, PS)		45	61	
CAACTCTCACTGTAACT (sugars l4 d11 l2, PS)		47	49	
CACAATCAACAACAAATA (sugars l4 d12 l2, PS)		40	54	
CACCACTGATTTCCTT (sugars l3 d10 l3, PS)		43	53	
CACCTGATAACAGACC (sugars l3 d10 l3, PS)		-22	7	target mRNA inhibition (Human Neuronal Cell, 5 µM): 27%
CAGCAGGCAGATAACCTC (sugars l3 d12 l3, PS)		-4	18	target mRNA inhibition (Human Neuronal Cell, 5 µM): 21%
CAGCATTCAACCCTAAT (sugars l3 d12 l2, PS)		40	54	
CAGCCATAAACTATAT (sugars l4 d10 l2, PS)		15	7	
CAGCTATTCAATAAAC (sugars l4 d10 l2, PS)		8	7	
CAGCTTTTAACCAGAGTGG (sugars l1 d15 l3, PS)	69			
CAGCTTTTAACCAGAGTGGC (sugars l1 d17 l2, PS)	40			
CATATTGAACCAATTC (sugars l4 d10 l2, PS)		51	67	
CATCATATTGAACCAA (sugars l2 d10 l4, PS)		52	63	

Sequence	target mRNA inhibition (Human Neuronal Cell, 7.5 µM) [%]	target mRNA inhibition (Human Neuronal Cell, 0.2 µM) [%]	target mRNA inhibition (Human Neuronal Cell, 1 µM) [%]	further results
CATCTGATCTCACACAT (sugars l4 d11 l2, PS)		29	46	
CATCTGCTACATATTCT (sugars l4 d11 l2, PS)		53	62	
CATTATATTTAAACTATCA (sugars l4 d13 l2, PS)		8	15	
CATTATTAACCACCTT (sugars l2 d10 l4, PS)		54	59	
CATTTCATATTACTAACT (sugars l3 d12 l3, PS)		10	18	
CCAAACTGTCTTCTAAT (sugars l2 d11 l4, PS)		23	26	
CCAGACTCCAATATTT (sugars l4 d10 l2, PS)		55	39	
CCAGCATATTATATAC (sugars l3 d10 l3, PS)		27	23	
CCATCTAATGATTATT (sugars l4 d10 l2, PS)		26	21	
CCATTCAATGATCACT (sugars l2 d10 l4, PS)		52	45	
CCATTTATTTCCATTTATTT (sugars lddlldldddddddddddll, PS)	40			
CCTACATCTCATACTT (sugars l2 d12 l2, PS)		-3	-3	target mRNA inhibition (Human Neuronal Cell, 5 µM): 11%
CCTACATCTCATACTTGC (sugars l2 d14 l2, PS)		4	21	target mRNA inhibition (Human Neuronal Cell, 5 µM): 25%; target mRNA inhibition [1]: 92.2%
CCTATGTTAATACTTTC (sugars l4 d11 l2, PS)		35	47	
CCTTCCCTTTGATAAC (sugars l3 d11 l2, PS)		28	55	
CCTTTAGCATTTCTATT (sugars l2 d11 l4, PS)		38	59	
CCTTTCATTAACATTTA (sugars l3 d11 l3, PS)		46	52	
CTACAAATTCAATTTACT (sugars l2 d12 l4, PS)		3	10	
CTACATCTCATACTTGC (sugars l2 d12 l3, PS)				target mRNA inhibition [1]: 97%
CTACTAAACATACACAT (sugars l3 d11 l3, PS)		34	45	
CTATGTTAATACTTTC (sugars l4 d10 l2, PS)		26	31	
CTCAAAGATCATTCTCA (sugars l1 d1 l3 d8 l4, PS)	66			

Sequence	target mRNA inhibition (Human Neuronal Cell, 7.5 µM) [%]	target mRNA inhibition (Human Neuronal Cell, 0.2 µM) [%]	target mRNA inhibition (Human Neuronal Cell, 1 µM) [%]	further results
CTCATACTTGCTTTAAT (sugars l4 d11 l2, PS)		7	13	target mRNA inhibition (Human Neuronal Cell, 5 µM): 26%; target mRNA inhibition [1]: 96.4%
CTCATCCCTCCAAGAAA (sugars l2 d13 l2, PS)		5	-16	target mRNA inhibition (Human Neuronal Cell, 5 µM): -5%; target mRNA inhibition [1]: 88.8%
CTCCAACATAGATCCT (sugars l3 d10 l3, PS)		44	54	
CTCTCCTCAAGATCAA (sugars l3 d10 l3, PS)		37	49	
CTGTTTATACCCTTTCCA (sugars l1 d1 l1 d13 l2, PS)	50			
CTGTTTATACCCTTTCCA (sugars l1 d2 l1 d12 l2, PS)	56			
CTTCCCTTTGATAACAT (sugars l3 d11 l3, PS)		20	43	
CTTTAATGCTTCTAACT (sugars l4 d11 l2, PS)		28	55	
CTTTCCATTTATTTCCATT (sugars ldddddddddddldldlll, PS)	66			
CTTTCCATTTATTTCCATTT (sugars ldddldldddddddddddll, PS)	53			
GAATTTCAACTACTAT (sugars l2 d10 l4, PS)		34	45	
GATCATTCTCAACAATT (sugars l1 d1 l3 d7 l5, PS)	22			
GATCATTCTCAACAATT (sugars l2 d1 l2 d7 l5, PS)	25			
GATCATTCTCAACAATT (sugars l5 d7 l1 d2 l2, PS)	34			
GATCATTCTCAACAATTA (sugars l2 d1 l2 d10 l3, PS)	57			
GATCATTCTCAACAATTA (sugars l2 d3 l1 d6 l6, PS)	33			
GATCATTCTCAACAATTA (sugars llddllddddddllddll, PS)	49			
GATCATTCTCAACAATTAA (sugars lddlldddddddlddllll, PS)	55			
GATCATTCTCAACAATTAA (sugars lldddlddddddlldllll, PS)	39			
GATCATTCTCAACAATTAA (sugars lllllddddddddldldll, PS)	5			
GCAACATTATTAACCACCT (sugars lddddlddddddldddlll, PS)	42			
GCAACATTATTAACCACCT (sugars ldlddddddddddddldll, PS)	58			

Sequence	target mRNA inhibition (Human Neuronal Cell, 7.5 µM) [%]	target mRNA inhibition (Human Neuronal Cell, 0.2 µM) [%]	target mRNA inhibition (Human Neuronal Cell, 1 µM) [%]	further results
GCAACATTATTAACCACCT (sugars lldddlddddddlddddll, PS)	45			
GCACATTCTTTCTATAC (sugars l2 d2 l1 d9 l3, PS)	62			
GCACATTCTTTCTATAC (sugars l2 d9 l1 d3 l2, PS)	48			
GCACATTCTTTCTATAC (sugars l3 d11 l3, PS)		39	59	
GCACATTCTTTCTATAC (sugars ldlldddddddlddlll, PS)	51			
GCACATTCTTTCTATAC (sugars ldlllddddddllddll, PS)	34			
GCACATTCTTTCTATACCT (sugars l1 d3 l1 d12 l2, PS)	48			
GCATTCAACCCTAATC (sugars l4 d10 l2, PS)		46	47	
GCCACAACATCTATTT (sugars l4 d10 l2, PS)		37	38	
GTACTTACACATCTAT (sugars l2 d10 l4, PS)		45	26	
GTATTTACTCTTTACCT (sugars l3 d11 l3, PS)		41	35	
GTTCTACTATACTTTC (sugars l4 d10 l2, PS)		61	66	
GTTCTACTATACTTTCCT (sugars l1 d2 l1 d11 l3, PS)	62			
GTTCTACTATACTTTCCT (sugars l1 d4 l1 d9 l3, PS)	57			
GTTCTACTATACTTTCCT (sugars lddldddddddddlddll, PS)	58			
GTTCTACTATACTTTCCT (sugars lddldlddddddddddll, PS)	56			
GTTCTACTATACTTTCCT (sugars lddldldddddddlddll, PS)	55			
GTTCTACTATACTTTCCTC (sugars lddddddddddddldldll, PS)	56			
GTTTATACCCTTTCCAAT (sugars ldldldddddddddldll, PS)	57			
GTTTCCATCTACTATTA (sugars l2 d11 l4, PS)		60	75	
